Experiments:
Assay type in all cases: in vivo
[1] = tested on: bromegrass, downy (downy bromegrass, Bromus tectorum); experiment: Test C pre-/postemergence: bromegrass, downy
Outline: (§1)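 Visual injury scored 0–100 (100 = complete control) against untreated controls after 13–15 greenhouse days. Surfactant-containing solvent formulations applied either to soil after sowing (loam/sand) or over 1- to 4-leaf plants, 2–18 cm tall.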

[2] = tested on: morningglory (Ipomoea spp.); experiment: Test A pre-/postemergence: morningglory; conditions: for Morningglory plant response rating: Postemergence; for Plant response rating, Morningglory: Preemergence
Outline: (§2)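 Each species received preemergence soil-directed spraying and, at the same time, postemergence treatment of seedlings 2–10 cm tall. Formulation: non-phytotoxic solvent mixture including surfactant. Response assessed visually about ten days on, relative to untreated controls, 0–100 scale.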

[3] = tested on: foxtail, giant (giant foxtail, Setaria faberii); experiment: Test A pre-/postemergence: foxtail, giant; conditions: for Foxtail, Giant plant response rating: Postemergence; for Plant response rating, Foxtail, Giant: Preemergence
Outline: as §2

[4] = tested on: crabgrass, large (large crabgrass, Digitaria sanguinalis); experiment: Test A pre-/postemergence: crabgrass, large; conditions: for Crabgrass, Large plant response rating: Postemergence; for Plant response rating, Crabgrass, Large: Preemergence
Outline: as §2

[5] = tested on: johnsongrass (Sorghum halepense); experiment: Test C pre-/postemergence: johnsongrass
Outline: as §1

[6] = tested on: velvetleaf (Abutilon theophrasti); experiment: Test A pre-/postemergence: velvetleaf; conditions: for Velvetleaf plant response rating: Postemergence; for Plant response rating, Velvetleaf: Preemergence
Outline: as §2

[7] = tested on: galium (catchweed bedstraw, Galium aparine); experiment: Test C pre-/postemergence: galium
Outline: as §1

[8] = tested on: nightshade (eastern black nightshade, Solanum ptycanthum); experiment: Test C pre-/postemergence: nightshade; conditions: Preemergence
Outline: as §1

[9] = tested on: blackgrass (Alopecurus myosuroides); experiment: Test C pre-/postemergence: blackgrass
Outline: as §1

[10] = tested on: morningglory (Ipomoea coccinea); experiment: Test C pre-/postemergence: morningglory
Outline: as §1

[11] = Postemergence, 31 g ai/ha, scale 0 to 100 (0 no effect, 100 complete control)
[12] = Postemergence, 62 g ai/ha, scale 0 to 100 (0 no effect, 100 complete control)
[13] = Postemergence, 125 g ai/ha, scale 0 to 100, 0 no effect, 100 complete control
[14] = Postemergence, 250 g ai/ha, scale 0 to 100
[15] = Preemergence, 31 g ai/ha, scale of 0 to 100, 0 is no effect, 100 is complete control
[16] = Preemergence, 62 g ai/ha, scale 0 to 100, 0 no effect, 100 complete control
[17] = Preemergence, 125 g ai/ha, scale 0 to 100, 0 no effect, 100 complete control
[18] = Preemergence, 250 g ai/ha, scale 0 to 100, 0 no effect, 100 complete control
[19] = 125 g ai/ha, 0 to 100 scale, 0 is no effect, 100 is complete control
[20] = 500 g ai/ha, visual rating on 0 to 100 scale (0 no effect, 100 complete control), approximately ten days
[21] = 125 g ai/ha, 0 to 100 scale (0 no effect, 100 complete control)
[22] = 500 g ai/ha, 0 to 100 scale, 0 is no effect, 100 is complete control
[23] = Preemergence, 62 g ai/ha, scale of 0 to 100, 0 is no effect, 100 is complete control

Compound: Cc1nn(-c2ccc(C(F)(F)F)cn2)nc1Oc1ccnc(C(F)(F)F)c1 [Compound 23]
- Plant response rating, Bromegrass, Downy [1, 11]: 5
- Plant response rating, Bromegrass, Downy [1, 12]: 5
- Plant response rating, Bromegrass, Downy [1, 13]: 5
- Plant response rating, Bromegrass, Downy [1, 14]: 5
- Plant response rating, Bromegrass, Downy [1, 15]: 0
- Plant response rating, Bromegrass, Downy [1, 16]: 0
- Plant response rating, Bromegrass, Downy [1, 17]: 5
- Plant response rating, Bromegrass, Downy [1, 18]: 10
- Morningglory plant response rating [2, 19]: 90
- Morningglory plant response rating [2, 20]: 100
- Plant response rating, Morningglory [2, 21]: 80
- Plant response rating, Morningglory [2, 22]: 80
- Foxtail, Giant plant response rating [3, 19]: 90
- Foxtail, Giant plant response rating [3, 20]: 90
- Plant response rating, Foxtail, Giant [3, 21]: 100
- Plant response rating, Foxtail, Giant [3, 22]: 100
- Crabgrass, Large plant response rating [4, 19]: 90
- Crabgrass, Large plant response rating [4, 20]: 90
- Plant response rating, Crabgrass, Large [4, 21]: 100
- Plant response rating, Crabgrass, Large [4, 22]: 100
- Plant response rating, Johnsongrass [5, 11]: 5
- Plant response rating, Johnsongrass [5, 12]: 10
- Plant response rating, Johnsongrass [5, 13]: 10
- Plant response rating, Johnsongrass [5, 14]: 20
- Plant response rating, Johnsongrass [5, 15]: 55
- Plant response rating, Johnsongrass [5, 23]: 75
- Plant response rating, Johnsongrass [5, 17]: 95
- Plant response rating, Johnsongrass [5, 18]: 98
- Velvetleaf plant response rating [6, 19]: 90
- Velvetleaf plant response rating [6, 20]: 100
- Plant response rating, Velvetleaf [6, 21]: 50
- Plant response rating, Velvetleaf [6, 22]: 100
- Plant response rating, Galium [7, 11]: 85
- Plant response rating, Galium [7, 12]: 85
- Plant response rating, Galium [7, 13]: 90
- Plant response rating, Galium [7, 14]: 90
- Plant response rating, Galium [7, 15]: 80
- Plant response rating, Galium [7, 23]: 95
- Plant response rating, Galium [7, 17]: 100
- Plant response rating, Galium [7, 18]: 100
- Plant response rating, Nightshade ([8]; 31 g ai/ha, scale of 0 to 100, 0 is no effect, 100 is complete control): 50
- Plant response rating, Nightshade ([8]; 62 g ai/ha, scale of 0 to 100, 0 is no effect, 100 is complete control): 90
- Plant response rating, Nightshade ([8]; 125 g ai/ha, scale 0 to 100, 0 no effect, 100 complete control): 95
- Plant response rating, Nightshade ([8]; 250 g ai/ha, scale 0 to 100, 0 no effect, 100 complete control): 98
- Plant response rating, Blackgrass [9, 11]: 15
- Plant response rating, Blackgrass [9, 12]: 20
- Plant response rating, Blackgrass [9, 13]: 20
- Plant response rating, Blackgrass [9, 14]: 25
- Plant response rating, Blackgrass [9, 15]: 5
- Plant response rating, Blackgrass [9, 16]: 85
- Plant response rating, Blackgrass [9, 17]: 100
- Plant response rating, Blackgrass [9, 18]: 100
- Plant response rating, Morningglory [10, 11]: 70
- Plant response rating, Morningglory [10, 12]: 70
- Plant response rating, Morningglory [10, 13]: 90
- Plant response rating, Morningglory [10, 14]: 90
- Plant response rating, Morningglory [10, 15]: 20
- Plant response rating, Morningglory [10, 23]: 20
- Plant response rating, Morningglory [10, 17]: 100
- Plant response rating, Morningglory [10, 18]: 100

Reference: patent US9302999B2, “Substituted triazoles as herbicides” (E. I. DU PONT DE NEMOURS AND COMPANY, priority 2012, dated 2016)
